The values that follow come from patent US20250154144A1 (CHILDREN'S HOSPITAL MEDICAL CENTER, priority 2021, published 2025).

For test [1], the target named is T1, FLT3 (Homo sapiens, UniProt P36888).
T1 sequence (P36888 27-993): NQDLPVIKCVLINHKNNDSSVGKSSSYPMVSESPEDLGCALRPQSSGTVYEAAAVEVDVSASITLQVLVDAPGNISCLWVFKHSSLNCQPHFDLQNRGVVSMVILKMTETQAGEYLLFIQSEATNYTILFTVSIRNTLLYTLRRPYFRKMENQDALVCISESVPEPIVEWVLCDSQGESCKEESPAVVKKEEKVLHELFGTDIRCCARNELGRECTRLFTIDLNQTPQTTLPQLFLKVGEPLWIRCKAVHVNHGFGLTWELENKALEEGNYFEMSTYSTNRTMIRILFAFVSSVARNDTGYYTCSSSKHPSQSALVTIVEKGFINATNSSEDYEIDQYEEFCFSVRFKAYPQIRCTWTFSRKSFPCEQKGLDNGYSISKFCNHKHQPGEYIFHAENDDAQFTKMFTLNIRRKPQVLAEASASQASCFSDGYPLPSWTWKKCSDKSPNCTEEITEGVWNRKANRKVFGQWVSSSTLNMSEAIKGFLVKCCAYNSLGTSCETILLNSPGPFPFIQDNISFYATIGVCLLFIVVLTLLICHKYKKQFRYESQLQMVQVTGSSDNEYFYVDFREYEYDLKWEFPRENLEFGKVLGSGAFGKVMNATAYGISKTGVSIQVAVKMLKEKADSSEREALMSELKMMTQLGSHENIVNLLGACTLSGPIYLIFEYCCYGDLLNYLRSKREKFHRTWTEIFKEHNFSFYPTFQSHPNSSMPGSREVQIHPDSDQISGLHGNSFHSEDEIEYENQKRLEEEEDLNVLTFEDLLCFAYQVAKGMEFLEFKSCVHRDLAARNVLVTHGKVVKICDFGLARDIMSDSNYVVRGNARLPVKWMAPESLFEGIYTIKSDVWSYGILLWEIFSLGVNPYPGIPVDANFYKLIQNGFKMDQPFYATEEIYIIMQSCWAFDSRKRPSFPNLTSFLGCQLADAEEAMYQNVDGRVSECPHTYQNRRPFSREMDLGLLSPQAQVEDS
The test is described as follows: Reaction Biology NanoBRET target engagement assay in HEK-293 cells, FLT3. (In general: In BRET a luciferase serves as donor, and the signal depends on an acceptor being close.)

For the next test, the target named is IRAK1 (Homo sapiens, UniProt P51617). In words: RBC HotSpot Kinase Assay, IRAK1. The settings on record: IRAK1 IC50.
Chain of IRAK1 (P51617 whole entry): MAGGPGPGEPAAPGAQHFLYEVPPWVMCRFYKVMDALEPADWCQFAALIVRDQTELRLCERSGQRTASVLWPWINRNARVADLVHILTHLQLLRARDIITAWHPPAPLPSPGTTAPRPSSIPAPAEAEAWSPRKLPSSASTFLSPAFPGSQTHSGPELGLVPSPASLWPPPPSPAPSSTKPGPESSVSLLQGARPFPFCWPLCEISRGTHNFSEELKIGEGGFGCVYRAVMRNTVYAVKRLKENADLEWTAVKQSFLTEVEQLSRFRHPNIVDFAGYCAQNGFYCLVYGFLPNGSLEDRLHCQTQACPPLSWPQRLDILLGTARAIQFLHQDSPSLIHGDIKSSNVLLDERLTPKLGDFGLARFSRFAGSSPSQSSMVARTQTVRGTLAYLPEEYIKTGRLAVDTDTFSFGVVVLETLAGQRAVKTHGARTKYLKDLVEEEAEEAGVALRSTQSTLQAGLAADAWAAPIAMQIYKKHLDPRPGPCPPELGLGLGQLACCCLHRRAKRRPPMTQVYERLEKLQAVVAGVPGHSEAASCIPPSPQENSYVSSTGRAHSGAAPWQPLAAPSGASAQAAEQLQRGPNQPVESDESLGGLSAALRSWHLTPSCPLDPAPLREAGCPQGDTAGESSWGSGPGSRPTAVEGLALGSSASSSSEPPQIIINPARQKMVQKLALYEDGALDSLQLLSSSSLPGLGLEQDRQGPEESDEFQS
In test [2] the target is T2, IRAK4 (Homo sapiens, UniProt Q9NWZ3).
T2 sequence (Q9NWZ3 1-460): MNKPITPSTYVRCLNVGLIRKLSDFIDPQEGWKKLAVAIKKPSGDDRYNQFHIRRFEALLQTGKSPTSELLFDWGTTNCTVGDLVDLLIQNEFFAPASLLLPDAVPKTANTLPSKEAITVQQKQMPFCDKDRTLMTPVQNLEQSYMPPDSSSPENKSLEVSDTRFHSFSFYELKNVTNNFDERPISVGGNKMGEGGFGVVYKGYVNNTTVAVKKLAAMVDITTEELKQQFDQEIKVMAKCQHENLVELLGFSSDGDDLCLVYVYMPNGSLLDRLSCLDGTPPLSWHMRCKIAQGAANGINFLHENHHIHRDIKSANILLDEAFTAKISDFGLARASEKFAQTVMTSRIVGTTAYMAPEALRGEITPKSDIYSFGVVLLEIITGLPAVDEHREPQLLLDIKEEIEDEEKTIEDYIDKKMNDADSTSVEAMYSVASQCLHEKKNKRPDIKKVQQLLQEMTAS
The test is described as follows: Reaction Biology NanoBRET target engagement assay in HEK-293 cells, IRAK4. To be noted: NanoBRET IRAK4 IC50, HEK-293 cells.

The subject of another test is MOLM14 F691L cells. In words: cells. Format: cell-based. The settings on record: 48 hours, Cell Titer Glo, read-out: MOLM14 F691L IC50.
Test [3] addresses T3, FLT3 (Homo sapiens, UniProt P36888).
T3 sequence (P36888 610-943 limits assumed): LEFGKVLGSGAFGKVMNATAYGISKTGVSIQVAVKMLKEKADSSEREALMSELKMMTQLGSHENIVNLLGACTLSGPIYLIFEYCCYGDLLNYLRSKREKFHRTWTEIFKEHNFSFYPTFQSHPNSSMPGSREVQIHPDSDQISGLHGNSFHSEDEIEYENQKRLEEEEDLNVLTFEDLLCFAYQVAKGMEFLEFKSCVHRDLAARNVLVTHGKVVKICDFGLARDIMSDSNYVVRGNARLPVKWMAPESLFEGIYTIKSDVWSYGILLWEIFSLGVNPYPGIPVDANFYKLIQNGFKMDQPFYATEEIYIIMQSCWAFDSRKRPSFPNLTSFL
In words: RBC HotSpot Kinase Assay, FLT3.

For test [4], the target named is T2, IRAK4. The test is described as follows: RBC HotSpot Kinase Assay, IRAK4. The settings on record: IRAK4 IC50.
The next test deals with MOLM14 D835Y cells. In words: cells. Format: cell-based. The settings on record: 48 hours, Cell Titer Glo, read-out: MOLM14 D835Y IC50.
For the next test, the system named is THP1 cells. The test is described as follows: Combination drug screening, Cell Titer Glo, 10 × 10 matrix, THP1 cells. The settings on record: THP1 cells; for Excess HSA Score: 10 × 10. Format: cell-based. (In general: Cellular ATP, detected with luciferase, serves as a proxy for viable cell number.)
For the next test, the system named is MOLM14(D835Y) cells. Format: cell-based. To be noted: MOLM14(D835Y) cells; for Excess HSA Score: 10 × 10.
Where [5] appears, read: NanoBRET FLT3 IC50, HEK-293 cells.
[6] abbreviates: combination with (+)-BAY-1251152.
Where [7] appears, read: combination with Eprenetapopt/APR-246.
The mark [8] stands for this setting: combination with Venetoclax (ABT-199).

Like-named read-outs stand apart in the source and are kept apart here. A value given as a limit tells only on which side of the number the result lay.

A word on the IC50: it is the concentration needed to halve the response being measured. For the compound `CC(O)(c1cn2c(-c3ccnc(N[C@@H]4CCCNC4)n3)cnc2cn1)C(F)(F)F` (single isomer, unassigned) [Compound 68], the concentration for half-maximal inhibition (IC50) is 388 nM at FLT3 [1]; 7 nM at IRAK1; 3 nM on IRAK4 [2]; 545 nM in the test with MOLM14 F691L cells; below 0.5 nM on FLT3 [3] (read-out: FLT3 IC50); 4 nM against IRAK4 [4]. Also, in the test with MOLM14 D835Y cells, the IC50 came out at 86 nM.
As for `CC(O)(c1cn2c(-c3ccnc(N[C@H]4CNC[C@@H]4F)n3)cnc2cn1)C(F)(F)F` (single isomer, unassigned) [Compound 69], the IC50 against FLT3 [1] (setting [5]) was 1950 nM; against IRAK1 it was 27 nM; against IRAK4 [2] it was 24 nM; in the test on MOLM14 F691L cells (Homo sapiens, MOLM-14, 48 h), 1220 nM; at FLT3 [3] (FLT3 IC50), below 0.5 nM; at IRAK4 [4], 1 nM. For the same compound, the IC50 with MOLM14 D835Y cells is 193 nM.
Turning to `CC(O)(c1cn2c(-c3ccnc(N[C@H]4CNCC[C@@H]4F)n3)cnc2cn1)C(F)(F)F` (single isomer, unassigned) [Compound 70], the IC50 at FLT3 [1] (setting [5]) was 1120 nM; against IRAK1, 12 nM; against IRAK4 [2], 29 nM; on FLT3 [3] (read-out: FLT3 IC50), below 0.5 nM; against IRAK4 [4] it was 43 nM.
In the case of `CC(O)(c1cn2c(-c3cncc(N[C@H]4CNCC[C@@H]4F)n3)cnc2cn1)C(F)(F)F` (single isomer, unassigned) [Compound 76], the half-maximal inhibitory concentration (IC50) on FLT3 [1] (setting [5]) was 3860 nM; against IRAK1, 8 nM; on IRAK4 [2], 19 nM; with MOLM14 F691L cells (Homo sapiens, MOLM-14, 48 h), 686 nM; against FLT3 [3] (FLT3 IC50), below 0.5 nM; at IRAK4 [4], 2 nM. In the test on MOLM14 D835Y cells, the half-inhibitory concentration (IC50) stood at 486 nM.
`FC(F)COc1ccn2c(-c3cncc(N[C@H]4CNCC[C@@H]4F)n3)cnc2c1` [Compound 9, 6-(7-(2,2-difluoroethoxy)imidazo[1,2-a]pyridin-3-yl)-N-((3S,4S)-4-fluoropiperidin-3-yl)pyrazin-2-amine]: the IC50 against FLT3 [1] (setting [5]) was 22 nM; against IRAK1, 65 nM; at IRAK4 [2], below 0.5 nM; with MOLM14 F691L cells (Homo sapiens, MOLM-14, 48 h), 31 nM; at FLT3 [3] (FLT3 IC50), below 0.5 nM; against IRAK4 [4], 1 nM. For the same compound, in the test on MOLM14 D835Y cells (Homo sapiens, MOLM-14, 48 h), the concentration for half-maximal inhibition (IC50) turned out to be 19 nM.
In the case of `CC(C)(O)c1ccc2ncc(-c3cncc(N[C@H]4CNCC[C@@H]4F)n3)n2c1` [Compound 18, 2-(3-(6-(((3S,4S)-4-fluoropiperidin-3-yl)amino)pyrazin-2-yl)imidazo[1,2-a]pyridin-6-yl)propan-2-ol], the IC50 against FLT3 [1] (setting [5]) came out at 2820 nM; against IRAK1, 116 nM; at IRAK4 [2], 0.8 nM; at FLT3 [3] (FLT3 IC50) it was 1 nM; at IRAK4 [4], 3 nM.
Regarding `FC(F)COc1ccn2c(-c3ccnc(N[C@H]4CNCC[C@@H]4F)n3)cnc2c1` [Compound 33, 4-(7-(2,2-difluoroethoxy)imidazo[1,2-a]pyridin-3-yl)-N-((3S,4S)-4-fluoropiperidin-3-yl)pyrimidin-2-amine], the “Excess HSA Score” value with THP1 cells (setting [6]) was −13.85; with THP1 cells (combination with AMG-232) it was −215.5; with THP1 cells (combination with AZD-5363), −132.5; with THP1 cells (setting [7]), 545.1487; in the test on THP1 cells (combination with Ivosidenib) it was −154.2; in the test with THP1 cells (combination with Lenalidomide) it was 178.6. For the same compound, the “Excess HSA Score” value is reported as −194.6 with THP1 cells (combination with Palbociclib); 467.2 with THP1 cells (combination with Prednisolone); 587.7 in the test with THP1 cells (combination with SNDX-5613); −195.2 in the test on THP1 cells (combination with TNO-155); −463.7 with THP1 cells (combination with Trametinib); −63.1 in the test with THP1 cells (combination with Ulixertinib). Besides, the “Excess HSA Score” value is −1595 with THP1 cells (setting [8]); 684.1 in the test on MOLM14(D835Y) cells (setting [6]); −604.4 in the test with MOLM14(D835Y) cells (combination with AMG-232); 320.5 in the test with MOLM14(D835Y) cells (combination with AZD-5363); −279.9 in the test on MOLM14(D835Y) cells (setting [7]); −12.14 in the test with MOLM14(D835Y) cells (combination with Ivosidenib). For the same compound, the “Excess HSA Score” value with MOLM14(D835Y) cells (combination with Lenalidomide) is on record as −11.33; with MOLM14(D835Y) cells (combination with Palbociclib), 347; in the test on MOLM14(D835Y) cells (combination with Prednisolone) it was −659.1; with MOLM14(D835Y) cells (combination with SNDX-5613), 95.25; in the test on MOLM14(D835Y) cells (combination with TNO-155), 177.1; in the test with MOLM14(D835Y) cells (combination with Trametinib), −226.8. Besides, the “Excess HSA Score” value in the test with MOLM14(D835Y) cells (combination with Ulixertinib) is listed as −441.5; with MOLM14(D835Y) cells (setting [8]) it was −315.6. For the same compound, the Comments entry in the test on THP1 cells (combination with Lenalidomide) is “Antagonistic”; with THP1 cells (setting [8]) it was “Synergistic”; in the test on MOLM14(D835Y) cells (combination with Prednisolone), “Synergistic”; with MOLM14(D835Y) cells (combination with SNDX-5613) it was “Antagonistic”. Besides, the IC50 was 30 nM against IRAK1; 55 nM in the test on MOLM14 F691L cells (Homo sapiens, MOLM-14, 48 h); below 0.5 nM at FLT3 [3] (FLT3 IC50); 2 nM against IRAK4 [4]; 7 nM in the test on MOLM14 D835Y cells (Homo sapiens, MOLM-14, 48 h).
Regarding `CC(C)(O)c1ccc2ncc(-c3ccnc(N[C@H]4CNCC[C@@H]4F)n3)n2c1` [Compound 42, 2-(3-(2-(((3S,4S)-4-fluoropiperidin-3-yl)amino)pyrimidin-4-yl)imidazo[1,2-a]pyridin-6-yl)propan-2-ol], the IC50 is 137 nM at FLT3 [1] (setting [5]); 158 nM at IRAK1; 2 nM against IRAK4 [2]; below 0.5 nM against FLT3 [3] (FLT3 IC50); 4 nM against IRAK4 [4].
